# Experimental data from US20100016434A1, “Inhibitors of Egln3 Activity for the Treatment of Neurodegenerative Disorders” (priority 2005, published 2010).
# Key:
# PC12 cells [1] = test: Apoptosis after NGF withdrawal in differentiated PC12 cells (GFP-Histone nuclei scoring); assay type: cell-based, rat
# Method: FIG. 5: (A) Anti-SM20/EGLN3 immunoblot analysis of PC12 cells treated as in FIG. 3A. SM-20 in vitro translate included in lane 1 as a control. (B and D) Representative fluorescent photomicrographs (B) and anti-HA immunoblot analysis (D) of PC12 cells transfected to produce GFP-Histone and the indicated HA-EGLN species. White arrows in […] indicate apoptotic nuclei. (C) Percent of GFP-positive nuclei with apoptotic changes after transfection with 0.5 or 1.0 μg of the indicated plasmids. (E and F) Representative fluorescent photomicrographs of PC12 cells transfected with the indicated siRNAs and a plasmid encoding GFP-Histone followed by treatment with NGF for […] (‘+NGF’), which was then withdrawn for 24 hours (‘−NGF’). White arrows indicate apoptotic nuclei, which were quantitated in (E) as percent of GFP-positive nuclei. (G and H) Representative fluorescent photomicrographs (F) of PC12 cells transfected to produce GFP-Histone and treated with NGF for 5 days (‘+NGF’), which was then withdrawn for 24 hours (‘−NGF’). Where indicated cells were exposed to 100 μM CoCl2 or 1% hypoxia during NGF withdrawal. White arrows indicate apoptotic nuclei, which were quantitated in (G) as % of GFP-positive nuclei.
# (§1) (B) FACS profiles of PC12 cells stained with the ROS-sensitive dye CM-H2DCFDA after treatment with the indicated SDH inhibitors or the ROS-inducing agent Rotenone (Ro; 20 μM) in the presence or absence of the ROS scavenger ascorbic acid (AA; 100 μM). C=control. (C and D) Representive fluorescent photomicrographs of PC12 cells (C) transfected to produce GFP-Histone alone (GFP-His) or GFP-Histone and EGLN3 (EGLN3). The SDH inhibitors 3-NPA (300 t-IM), MA (300 I-LM), or TTFA (200 ˜M) were added where indicated. White arrows indicate apoptotic nuclei, which were quantitated in (D) as percent of GFP-positive nuclei. (E) Immunoblot analysis of PC12 cells treated with the indicated chemicals or vehicle (C). (F) Percent of GFP-positive PC12 nuclei undergoing apoptosis after transfection to produce GFP-Histone alone (GFP-His) or GFP-Histone and EGLN3 (EGLN3) in the presence or absence of SDH inhibitors. 100 μM AA was also present where indicated. (G) Percent of GFP-positive PC 12 nuclei undergoing apoptosis after transfection with the indicated siRNAs and a plasmid encoding GFP-Histone followed by treatment with NGF for 5 days (‘+NGF’), which was then withdrawn for 24 hours (‘−NGF’). […]
# (§2) Undifferentiated PC12 cells were plated onto collagen-coated 6-well plates 1 day before transfection with LIPOFECTAMINE 2000 reagent (Invitrogen) according to the manufacturer's instructions. […] Nuclei that were condensed or fragmented were scored as apoptotic. Approximately 400 cells were scored for each set of conditions and all assays were performed in triplicate.
# EGLN3 = molecular target: T1, EGLN3 (Homo sapiens, UniProt Q9H6Z9); test: EGLN3 hydroxylation assay: HIF1α-derived peptide, capture of 35S-labeled pVHL; assay type: biochemical; conditions: increasing amount of succinate; EGLN3 in vitro translate
# T1 construct: HA; made in house; host or cells: in vitro translation in reticulocyte lysate
# T1 sequence (Q9H6Z9 whole entry): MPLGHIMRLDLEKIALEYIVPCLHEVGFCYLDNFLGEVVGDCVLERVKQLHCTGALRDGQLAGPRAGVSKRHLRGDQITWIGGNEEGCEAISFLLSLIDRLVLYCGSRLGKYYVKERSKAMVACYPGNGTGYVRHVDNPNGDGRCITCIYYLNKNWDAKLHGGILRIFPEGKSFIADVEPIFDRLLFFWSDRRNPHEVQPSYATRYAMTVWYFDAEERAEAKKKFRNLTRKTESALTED
# PC12 cells [2] = test: EGLN3-induced apoptosis in transfected undifferentiated PC12 cells (GFP-Histone nuclei scoring); assay type: cell-based, rat; conditions: coadministration of 100 μM AA with SDH inhibitors
# Method: as §1, with “indicated.” for “indicated. (G) Percent of GFP-positive PC 12 nuclei undergoing apoptosis after transfection with the indicated siRNAs and a plasmid encoding GFP-Histone followed by treatment with NGF for 5 days (‘+NGF’), which was then withdrawn for 24 hours (‘−NGF’).”
# as §2, with “triplicate. […]” for “triplicate.”
# PC12 cells [3] = test: ROS analysis by FACS with CM-H2DCFDA; assay type: cell-based, rat; conditions: 100 μM AA
# Method: (B) FACS profiles of PC12 cells stained with the ROS-sensitive dye CM-H2DCFDA after treatment with the indicated SDH inhibitors or the ROS-inducing agent Rotenone (Ro; 20 μM) in the presence or absence of the ROS scavenger ascorbic acid (AA; 100 μM). C=control. (C and D) Representive fluorescent photomicrographs of PC12 cells (C) transfected to produce GFP-Histone alone (GFP-His) or GFP-Histone and EGLN3 (EGLN3). The SDH inhibitors 3-NPA (300 t-IM), MA (300 I-LM), or TTFA (200 ˜M) were added where indicated. White arrows indicate apoptotic nuclei, which were quantitated in (D) as percent of GFP-positive nuclei. (E) Immunoblot analysis of PC12 cells treated with the indicated chemicals or vehicle (C). (F) Percent of GFP-positive PC12 nuclei undergoing apoptosis after transfection to produce GFP-Histone alone (GFP-His) or GFP-Histone and EGLN3 (EGLN3) in the presence or absence of SDH inhibitors. 100 μM AA was also present where indicated. (G) Percent of GFP-positive PC 12 nuclei undergoing apoptosis after transfection with the indicated siRNAs and a plasmid encoding GFP-Histone followed by treatment with NGF for 5 days (‘+NGF’), which was then withdrawn for 24 hours (‘−NGF’).
# PC12 cells were incubated for 1 hr with 5 μM CM-H2DCFDA (Molecular Probes), harvested, resuspended at 10^6 cells/ml in PBS supplemented with 7% FBS, and analyzed by FACS.
# HIF2α = test: Immunoblot analysis of HIF2α in 786-O cells; assay type: cell-based, human; conditions: 786-O cells treated with PKC inhibitor
# Excerpt: (A and B) Immunoblot analysis of 786-O cells treated with the PKC inhibitor GF109230X.
# Twenty μg of nuclear extract per lane, prepared using a NE-PER extraction kit (Pierce Biotechnology, Inc., Rockford Ill.) and measured by the Bradford assay, was resolved on 10% or 12% SDS-PAGE gels and transferred to nitrocellulose membrane (Bio-Rad Laboratories, Hercules Calif.) to detect endogenous JunB and HIF2α. After blocking in TBS with 5% nonfat milk, the membranes were probed with anti-JunB monoclonal antibody (C-11; Santa Cruz Biotechnology, Inc., Santa Cruz Calif.) or anti-HIF2α rabbit polyclonal antibody (NB100-122; Novus Biologicals, Inc., Littleton Colo.). Bound protein was detected with a Horseradish Peroxidase (HRP)-conjugated secondary antibodies and an enhanced chemiluminesence kit (Pierce).
# JunB = test: Immunoblot analysis of JunB in 786-O renal carcinoma subclones; assay type: cell-based, human; conditions: 786-O cells treated with PKC inhibitor
# Method: FIG. 2: (A) Immunoblot analysis of 786-O VHL(−/−) renal carcinoma cells retrovirally infected to produce the indicated short hairpin RNAs (shRNA) or wild-type pVHL (VHL). (B) Immunoblot analyis of RC3 cells and WT7 cells; where indicated, WT7 cells were treated with DFO or infected to produce HIF2α P405A; P531A or with empty retrovirus. (C) Immunoblot analysis of indicated 786-O subclones grown in presence or absence of DFO; (*)=non-specific band. (D) Immunoblot analysis of A498 and 786-O cells transfected to produce the indicated HA-pVHL variants or with empty vector. Arrow indicates a slowly migrating form of aPKC. (E) In vitro aPKC activity. Anti-aPKC immunoprecipitates of the indicated cell lines under antibody excess conditions were incubated with a peptidic aPKC substrate in the presence of ^32P-γ-ATP. Shown are incorporated ^32P values. (F) Immunoblot analysis of 786-O cells treated with the PKC inhibitor GF109230X.
# Twenty μg of nuclear extract per lane, prepared using a NE-PER extraction kit (Pierce Biotechnology, Inc., Rockford Ill.) and measured by the Bradford assay, was resolved on 10% or 12% SDS-PAGE gels and transferred to nitrocellulose membrane (Bio-Rad Laboratories, Hercules Calif.) to detect endogenous JunB and HIF2α. […] Bound protein was detected with a Horseradish Peroxidase (HRP)-conjugated secondary antibodies and an enhanced chemiluminesence kit (Pierce).
# [4] = SDH inhibitors 300 μM, NGF withdrawn for 24 hours
compound,measurement,setting,value
[Cl][Co][Cl] [cobalt chloride],Apoptosis after NGF withdrawal,"PC12 cells [1]; 100 μM CoCl2 during NGF withdrawal, 24 hours",decreased
O=C(O)CCC(=O)O [succinate],EGLN3 hydroxylase activity,EGLN3,diminished
O=C1O[C@H]([C@@H](O)CO)C(O)=C1O [ascorbic acid],Effect on the action of the SDH inhibitors on EGLN3-induced apoptosis,PC12 cells [2],failed to mitigate
same,ROS induction by SDH inhibitors,PC12 cells [3],blocking ROS induction
CN(C)CCCn1cc(C2=C(c3c[nH]c4ccccc34)C(=O)NC2=O)c2ccccc21 [GF109203X],HIF2α levels,HIF2α,does not affect
same,JunB levels,JunB,downregulated
"O=C(O)CC[N+](=O)[O-] [3-NPA, 3-nitroproprionic acid]",Apoptosis after NGF withdrawal,PC12 cells [1]; [4],diminished apoptosis
"O=C(O)CC(=O)O [MA, malonic acid]",Apoptosis after NGF withdrawal,PC12 cells [1]; [4],diminished apoptosis
"O=C(O)CCC(=O)C(=O)O [2-OG, 2-oxoglutarate]",Apoptosis after NGF withdrawal in SDH D siRNA-transfected cells,PC12 cells [1]; 0.5 mM 2-oxoglutarate added to the media 24 hours before NGF withdrawal,partially restored
